Laboratory results: patent publication US6461997B1, “Triazole sulfones having herbicidal activity” (Monsanto Technology LLC, priority 1999, dated 2002)

Columns and labels:
ECHCG (barnyardgrass) = assay: Pre-plant incorporated (PPI) herbicidal activity, warm season; assay type: in vivo, Echinochloa crus-galli; settings: for Percent inhibition ECHCG: PPI application; for PPI activity GR80, ECHCG: pre-plant incorporated, lowest tested rate with 80% or greater inhibition, about 14 days
Protocol: (§1) In another set of tests, the pre-plant incorporated (PPI) activity of compounds of this invention was evaluated on the same species as for the pre-emergence tests described above. In the PPI tests the following procedure, designed to simulate PPI application, was used.
(§2) A pre-prepared topsoil mixture (described above) was placed in a pot and compacted to a depth of 1.0 to 1.25 cm from the top of the pot. Seeds of each of several monocotyledonous and dicotyledonous annual plant species were placed on top of the soil. A sufficient quantity of soil to cover the seeds and level fill the pot was weighed into an open container. A known amount of the test compound was dissolved or suspended in an organic solvent and applied by spraying to this cover soil. The cover soil was thoroughly mixed to distribute the test compound throughout the cover soil, and was then applied as a cover layer over the seeds. Untreated soil was used as a cover layer for control pots. After treatment the plants were placed in a greenhouse where they received 0.64 cm of overhead irrigation. All subsequent watering consisted of a light overhead mist and/or subirrigation as needed for germination and growth. Tables 9 and 10 below relate to warm season plant species which were placed after pre-emergence treatment in a greenhouse with a 30/21° C. day/night temperature regime. Tables 11 and 12 below relates to cool season plant species placed after pre-emergence treatment in a greenhouse or growth chamber with an 18/13° C. day/night temperature regime. Only the compounds of Examples 1, 6, 8, 11, 13 and 15-20 were included in PPI tests.
(§3) Approximately 14 days after planting and treating, the plants were observed and herbicidal efficacy recorded as percent inhibition by comparison with untreated plants.

SASKR (russian thistle) = assay: Pre-plant incorporated (PPI) herbicidal activity, cool season; assay type: in vivo, Salsola kali; settings: for PPI activity GR80, SASKR: pre-plant incorporated, lowest tested rate with 80% or greater inhibition, about 14 days; for Percent inhibition SASKR: weed, PPI application
Protocol: as §1, §2, §3

XANST (cocklebur) = assay: Pre-plant incorporated (PPI) herbicidal activity, warm season; assay type: in vivo, Xanthium strumarium; settings: PPI application
Protocol: as §1, §2, §3

[1] = tested on: BRAPP (broadleaf signalgrass); assay: Pre-emergence herbicidal activity, warm season; assay type: in vivo, Brachiaria platyphylla; settings: GR80 = lowest tested rate (300, 100, 30, 10 g/ha) with 80% or greater inhibition; approx. 14 days after treating; 30/21° C.
Outline: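 Activity is expressed as the rate giving 80% inhibition, with 300, 100, 30 and 10 g/ha typically tested. An asterisk marks activity short of 80% at the top rate. Warm-season grasses were held at 30/21 °C; cool-season blackgrass and wild buckwheat at 18/13 °C; scoring at about 14 days.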

AVEFA (wild oat) = assay: Post-emergence herbicidal activity, cool season; assay type: in vivo, Avena fatua; settings: abraded plants sprayed at 300, 100, 30 and 10 g/ha; about 14 days after treatment
Outline: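 Greenhouse-grown seedlings were abraded 9–14 days after planting, then sprayed at 300, 100, 30 and 10 g/ha in acetone:water (3,100 l/ha). Grown at 18/13 °C day/night, percent inhibition versus abraded unsprayed controls was scored about 14 days after treatment and GR80 assigned.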

SETVI (green foxtail) = assay: Pre-emergence herbicidal activity, cool season; assay type: in vivo, Setaria viridis; settings: GR80 = lowest tested rate (300, 100, 30, 10 g/ha) with 80% or greater inhibition; approx. 14 days after treating; 18/13° C.
Outline: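 Seeds sown in sterilised fertilised topsoil received surface-applied compound in 50:50 acetone/water, typically at 300, 100, 30 and 10 g/ha, then greenhouse-grown at 30/21° C (warm-season species) or 18/13° C (cool-season species). Percent inhibition versus untreated plants was scored at about 14 days, giving GR80; an asterisk marks activity short of 80% at the top rate.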

[2] = tested on: VERPE (creeping speedwell); assay: Pre-plant incorporated (PPI) herbicidal activity, cool season; assay type: in vivo, Veronica persicaria; settings: for PPI activity GR80, VERPE: pre-plant incorporated, lowest tested rate with 80% or greater inhibition, about 14 days; for Percent inhibition VERPE: weed, PPI application
Protocol: as §1, §2, §3

Compound	Percent inhibition ECHCG (ECHCG (barnyardgrass); 10 g/ha)	Percent inhibition ECHCG (ECHCG (barnyardgrass); 30 g/ha)	Percent inhibition ECHCG (ECHCG (barnyardgrass); 100 g/ha)	Percent inhibition ECHCG (ECHCG (barnyardgrass); 300 g/ha)	Percent inhibition ECHCG (ECHCG (barnyardgrass); 900 g/ha)	PPI activity GR80, ECHCG (ECHCG (barnyardgrass))	PPI activity GR80, SASKR (SASKR (russian thistle))	Percent inhibition SASKR (SASKR (russian thistle); 10 g/ha)	Percent inhibition SASKR (SASKR (russian thistle); 30 g/ha)	Percent inhibition SASKR (SASKR (russian thistle); 100 g/ha)	Percent inhibition SASKR (SASKR (russian thistle); 300 g/ha)	Percent inhibition SASKR (SASKR (russian thistle); 900 g/ha)	Percent inhibition XANST (XANST (cocklebur); 10 g/ha)	Percent inhibition XANST (XANST (cocklebur); 30 g/ha)	Percent inhibition XANST (XANST (cocklebur); 100 g/ha)	Percent inhibition XANST (XANST (cocklebur); 900 g/ha)	Pre-emergence activity (GR80) BRAPP [1]	Post-emergence activity GR80, AVEFA (AVEFA (wild oat))	Pre-emergence activity (GR80) SETVI (SETVI (green foxtail))	PPI activity GR80, VERPE [2]	also measured
C=C(CC(F)(F)S(=O)(=O)c1ncn(C(=O)N(CC)CC)n1)C[Si](C)(C)C [Example 20]	0%	0%	20%	70%	100%	300 g/ha	300 g/ha	0%	0%	40%	0%	100%	0%	0%	0%	50%	300 g/ha	[empty]	100 g/ha	30 g/ha	Percent inhibition VERPE ([2]; 10 g/ha): 0%; Percent inhibition VERPE ([2]; 30 g/ha): 90%; Percent inhibition VERPE ([2]; 100 g/ha): 50%; Percent inhibition VERPE ([2]; 300 g/ha): 90%; Percent inhibition VERPE ([2]; 900 g/ha): 95%
CCN(CC)C(=O)n1cnc(S(=O)(=O)C(F)(F)SCCOC)n1 [Example 13]	10%	80%	100%	100%	100%	100 g/ha	300 g/ha	20%	30%	80%	100%	100%	0%	0%	0%	30%	300 g/ha	[empty]	100 g/ha	100 g/ha	Percent inhibition XANST (XANST (cocklebur); 300 g/ha): 0%; Percent inhibition VERPE ([2]; 10 g/ha): 75%; Percent inhibition VERPE ([2]; 30 g/ha): 100%; Percent inhibition VERPE ([2]; 100 g/ha): 100%; Percent inhibition VERPE ([2]; 300 g/ha): 100%; Percent inhibition VERPE ([2]; 900 g/ha): 100%
